Experimental data published in the supplement of paper PMC11061612.

Key:
[1] = compound: CN(C)CCCOc1ccc(-c2ccc3ncc4c(c3c2)n(C2CCOCC2)c(=O)n4C)cn1 [AZD0156]; details: max 3 µM
Method in brief: (§1)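 Cancer cell lines were dosed for 72 hours (final DMSO typically 0.2%) after 24 hours at 37°C and 5% CO2 in 1536-well plates containing 7.5 μl DMEM/F12 or RPMI with 10% FBS. Viability came from CellTiter-Glo 2.0 luminescence, scaled between blank-well and DMSO-well means, and dose responses were fitted to a two-parameter logistic curve with a non-linear mixed effects model. The single-agent IC50 was obtained from this fit.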

[2] = compound: CS(=O)(=O)CCNCc1ccc(-c2ccc3ncnc(Nc4ccc(OCc5cccc(F)c5)c(Cl)c4)c3c2)o1 [Lapatinib]; details: max 10 µM
Method in brief: as §1

[3] = compound: C[C@@H](c1ccc2nccn2c1)n1nnc2ncc(-c3cnn(C)c3)nc21 [Savolitinib]; details: max 1 µM
Method in brief: as §1

[4] = compound: CC1=CN2[C@@H](C1)C=NC3=CC(=C(C=C3C2=O)OC)OCCCCCOC4=C(C=C5C(=C4)N=C[C@@H]6CC(=CN6C5=O)C)OC [SG3199]; details: max 0.001 µM
Method in brief: as §1

[5] = compound: C[C@@H](Oc1cc(-c2cnn(C3CCNCC3)c2)cnc1N)c1c(Cl)ccc(F)c1Cl [Crizotinib]; details: max 10 µM
Method in brief: as §1

[6] = compound: CC(=O)c1c(C)c2cnc(Nc3ccc(N4CCNCC4)cn3)nc2n(C2CCCC2)c1=O [Palbociclib]; details: max 10 µM
Method in brief: as §1

[7] = compound: COc1cccc(OCCCN)c1-c1cc(Nc2cnc(C#N)cn2)n[nH]1 [Prexasertib]; details: max 1 µM
Method in brief: as §1

[8] = compound: C1CN(CCC1(C(=O)N[C@@H](CCO)C2=CC=C(C=C2)Cl)N)C3=NC=NC4=C3C=CN4 [Capivasertib]; details: max 10 µM
Method in brief: as §1

[9] = compound: Cc1nc(-c2cn3c(n2)-c2ccc(-c4cnn(C(C)(C)C(N)=O)c4)cc2OCC3)n(C(C)C)n1 [Taselisib]; details: max 10 µM
Method in brief: as §1

[10] = compound: Cc1c2c(nn1C)CSCc1cc(n(C)n1)CSc1cc(c3ccccc3c1)OCCCc1c(C(=O)O)n(C)c3c-2c(Cl)ccc13 [AZD5991]; details: max 1 µM
Method in brief: as §1

[11] = compound: C[C@@H](Nc1cc(F)cc(F)c1)c1cc(C(=O)N(C)C)cc2c(=O)cc(N3CCOCC3)oc12 [AZD8186]; details: max 3 µM
Method in brief: as §1

[12] = compound: CC(=O)Nc1cccc(-n2c(=O)n(C3CC3)c(=O)c3c(Nc4ccc(I)cc4F)n(C)c(=O)c(C)c32)c1 [Trametinib]; details: max 1 µM
Method in brief: as §1

[13] = compound: CCN(CCO)CCCOc1ccc2c(Nc3cc(CC(=O)Nc4cccc(F)c4)[nH]n3)ncnc2c1 [AZD2811]; details: max 1 µM
Method in brief: as §1

[14] = compound: CC1(C)CCC(CN2CCN(c3ccc(C(=O)NS(=O)(=O)c4ccc(NCC5CCOCC5)c([N+](=O)[O-])c4)c(Oc4cnc5[nH]ccc5c4)c3)CC2)=C(c2ccc(Cl)cc2)C1 [Venetoclax]; details: max 1 µM
Method in brief: as §1

[15] = compound: COc1cccc2c1C(=O)c1c(O)c3c(c(O)c1C2=O)C[C@@](O)(C(=O)CO)C[C@@H]3O[C@H]1C[C@H](N)[C@H](O)[C@H](C)O1 [Doxorubicin]; details: max 1 µM
Method in brief: as §1

[16] = compound: Cn1cnc2c(F)c(Nc3ccc(Br)cc3Cl)c(C(=O)NOCCO)cc21 [Selumetinib]; details: max 10 µM
Method in brief: as §1

[17] = compound: COc1cc2ncnc(Nc3ccc(F)c(Cl)c3)c2cc1OCCCN1CCOCC1 [Gefitinib]; details: max 10 µM
Method in brief: as §1

[18] = compound: Cc1cc2ncnn2cc1Nc1ncc2c(n1)n(C1CCOCC1)c(=O)n2C [AZD7648]; details: max 10 µM
Method in brief: as §1

[19] = compound: COc1nnc2ccc(N3CCC(c4ccc(OCCN5CCN(C)C(=O)[C@H]5C)cc4)CC3)nn12 [AZD5153]; details: max 1 µM
Method in brief: as §1

[20] = compound: CN(CC[C@H](CSC1=CC=CC=C1)NC2=C(C=C(C=C2)S(=O)(=O)NC(=O)C3=CC=C(C=C3)N4CCC(CC4)[C@H](C5=CC=CC=C5C6=CC=C(C=C6)Cl)O)S(=O)(=O)C(F)(F)F)CCO [AZD4320]; details: max 1 µM
Method in brief: as §1

[21] = compound: COc1cc(Nc2ncc3c(n2)-c2ccc(Cl)cc2C(c2c(F)cccc2OC)=NC3)ccc1C(=O)O [Alisertib]; details: max 10 µM
Method in brief: as §1

[22] = compound: CCc1c2c(nc3ccc(O)cc13)-c1cc3c(c(=O)n1C2)COC(=O)[C@]3(O)CC [SN-38]; details: max 0.3 µM
Method in brief: as §1

[23] = compound: C[C@@H]1COCCN1C2=NC(=NC(=C2)C3(CC3)[S@](=N)(=O)C)C4=C5C=CNC5=NC=C4 [AZD6738]; details: max 10 µM
Method in brief: as §1

[24] = compound: C=CCn1c(=O)c2cnc(Nc3ccc(N4CCN(C)CC4)cc3)nc2n1-c1cccc(C(C)(C)O)n1 [AZD1775]; details: max 3 µM
Method in brief: as §1

[25] = compound: CC1=C(C(=CC=C1)Cl)NC(=O)C2=CN=C(S2)NC3=CC(=NC(=N3)C)N4CCN(CC4)CCO [Dasatinib]; details: max 2 µM
Method in brief: as §1

[26] = compound: CC(C)n1c(=O)n(C)c2cnc3cc(F)c(-c4ccc(OCCCN5CCCCC5)nc4)cc3c21 [AZD1390]; details: max 0.3 µM
Method in brief: as §1

[27] = compound: O=C(c1cc(Cc2n[nH]c(=O)c3ccccc23)ccc1F)N1CCN(C(=O)C2CC2)CC1 [Olaparib]; details: max 10 µM
Method in brief: as §1

Cell Line	IC50, cell viability 72 h [1]	IC50, cell viability 72 h [2]	IC50, cell viability 72 h [3]	IC50, cell viability 72 h [4]	IC50, cell viability 72 h [5]	IC50, cell viability 72 h [6]	IC50, cell viability 72 h [7]	IC50, cell viability 72 h [8]	IC50, cell viability 72 h [9]	IC50, cell viability 72 h [10]	IC50, cell viability 72 h [11]	IC50, cell viability 72 h [12]	IC50, cell viability 72 h [13]	IC50, cell viability 72 h [14]	IC50, cell viability 72 h [15]	IC50, cell viability 72 h [16]	IC50, cell viability 72 h [17]	IC50, cell viability 72 h [18]	IC50, cell viability 72 h [19]	IC50, cell viability 72 h [20]	IC50, cell viability 72 h [21]	IC50, cell viability 72 h [22]	IC50, cell viability 72 h [23]	IC50, cell viability 72 h [24]	IC50, cell viability 72 h [25]	IC50, cell viability 72 h [26]	IC50, cell viability 72 h [27]
ALL-PO (B-Lymphoblastic Leukemia)	> 3 µM	5.96 µM	> 1 µM	> 0.001 µM	1.81 µM	4.65 µM	0.0177 µM	7.8 µM	5.29 µM	0.0574 µM	> 3 µM	> 1 µM	0.00676 µM	0.733 µM	0.166 µM	> 10 µM	> 10 µM	> 10 µM	0.0672 µM	0.0214 µM	0.0559 µM	0.00205 µM	2.12 µM	0.51 µM	> 2 µM	> 0.3 µM	7.82 µM
BE2-M17 (Neuroblastoma)	> 3 µM	> 10 µM	> 1 µM	> 0.001 µM	8.33 µM	> 10 µM	0.0249 µM	> 10 µM	2.62 µM	0.324 µM	> 3 µM	0.127 µM	> 1 µM	> 1 µM	0.425 µM	9.3 µM	> 10 µM	> 10 µM	> 1 µM	> 1 µM	1.91 µM	0.0145 µM	4.84 µM	0.9 µM	> 2 µM	> 0.3 µM	> 10 µM
BPH-1 (Non-Cancerous)	> 3 µM	0.836 µM	> 1 µM	> 0.001 µM	> 10 µM	> 10 µM	> 1 µM	> 10 µM	0.379 µM	> 1 µM	> 3 µM	0.0802 µM	> 1 µM	> 1 µM	0.312 µM	4.72 µM	5.9 µM	> 10 µM	0.0694 µM	> 1 µM	1.35 µM	0.00684 µM	> 10 µM	0.882 µM	0.127 µM	> 0.3 µM	> 10 µM
CAL-33 (Oral Cavity Carcinoma)	> 3 µM	3.53 µM	> 1 µM	> 0.001 µM	> 10 µM	> 10 µM	0.138 µM	> 10 µM	0.122 µM	> 1 µM	> 3 µM	0.724 µM	0.255 µM	> 1 µM	0.219 µM	> 10 µM	> 10 µM	> 10 µM	> 1 µM	> 1 µM	0.553 µM	0.00571 µM	4.39 µM	0.659 µM	0.55 µM	> 0.3 µM	> 10 µM
